Patent US6723710B2, “Compositions for inhibiting arginase activity” (The Trustees of the University of Pennsylvania, priority 1997, dated 2004)
pKd: −log10 of the molar value. Entries after “also recorded” stand apart in the source; their conditions may differ.

Key:
[1] = system: internal anal sphincter (IAS) smooth muscle; assay: NANC nerve-mediated relaxation of IAS smooth muscle strips by electrical field stimulation; set-up: species or system opossum (Didelphis virginiana); conditions: for decrease in basal IAS tension after ABHA: 1×10^−4 molar
Source text: The entire anal canal was isolated carefully by dissection and transferred to a dissecting tray containing oxygenated (95% O2 plus 5% CO2) Krebs' solution. The composition of the Krebs' solution was as follows (in millimolar): NaCl, 118.07; KCl 4.69; […] MgSO4, 1.16; […] NaHCO3, 25 and glucose (Pufahl et al., 1995, Biochemistry 34:1930-1941; […] et al., 1993, Biochem. Biophys. Res. Commun. 196:1558-1565). The anal canal was cleaned of extraneous connective tissue and blood vessels. Following this, the anal canal was opened by making an incision along the longitudinal axis, and was pinned flat with the mucosal side facing up. The mucosa and submucosa were removed by sharp dissection. Circular smooth muscle strips were obtained from the whole circumference of the anal canal and divided into two equal strips (about 1×8 millimeters). Both ends of the muscle strips were secured with silk sutures (4-0: Ethicon Inc., Sommerville, N.J.) and used for the measurement of isometric tension. […] One end of each muscle strip was fixed to the bottom of the muscle bath with a tissue holder and the other end was attached to an isometric force transducer (model FT03; Grass Instruments Co., Quincy, Mass.) in order to measure isometric tension. Smooth muscle tension was recorded using a […] recorder (model […]; Beckman Instruments, Schiller Park, Ill.). […] J. Physiol. 255:[…]-[…]). Only those smooth muscle strips that developed spontaneous and steady tension and relaxed in response to electrical field stimulation (EFS) were used. EFS was delivered, via a pair of platinum wires, from a Grass stimulator (Model S88; Grass Instruments Co., Quincy, Mass.) connected in series to a Med-Lab […] (Med-Lab Instruments, Loveland, Colo.). […] These parameters of EFS are known to cause relaxation of IAS smooth muscle by selective activation of NANC myenteric neurons. Neurally-mediated relaxation of IAS smooth muscle strips was quantified in response to different frequencies of EFS. […] To determine the influence of arginase on NANC nerve-mediated relaxation of IAS, the effects of different doses of arginase on relaxation were first determined. […] The effectiveness of arginase inhibitors (L-OH-Arg and ABHA) on arginase-induced attenuation of EFS-induced IAS relaxation was then tested. Optimal doses of arginase and L-OH-Arg in IAS have been reported ([…] and […]. Pharmacol. Exp. Ther. 282:378-384). In order to determine the selectivity of arginase inhibitors in IAS, their effects on IAS relaxation suppressed by the NO synthase inhibitor L-NNA ([…]) were tested. […] To examine the physiological relevance of arginase inhibitors in IAS relaxation, the influence of selected concentrations of arginase inhibitors on EFS-induced IAS relaxation was examined. […] Each smooth muscle strip served as its own control. […] The results are expressed as means±standard error.

NO synthase = target: T1, NO synthase (Homo sapiens, UniProt P29475); assay: Nitric Oxide Synthase-ABHA assay (NO2-/NO3- production); assay type: biochemical; conditions: 0.1 millimolar or 1.0 millimolar ABHA
T1 construct: purchased Biomol
Source text: NADPH, FAD, FMN, L-arginine, N-(2-hydroxyethyl)piperazine-N-2-ethanesulfonic acid (HEPES) (6R)-5,6,7,8-tetrahydro-L-biopterin (BH4), aminoguanidine, CaCl2, and phosphodiesterase cyclic nucleotide activator (calmodulin) were purchased from Sigma Chemical Company (St. Louis, Mo.). Neuronal NO synthase was purchased from Biomol, dialyzed to remove beta-mercaptoethanol, and concentrated to 0.1 milligram per milliliter. The nitric oxide synthase colorimetric assay kit was purchased from Calbiochem. Materials were used without further purification. The effect of ABHA on NO synthesis was assayed by monitoring the sum of NO2^− and NO3^− production, as described (Verdon et al., 1995, Anal. Biochem. 224:502-508). The enzyme solution was shaken at 37° C. for 15 minutes with 50 millimolar HEPES (pH 7.5), 100 micromolar NADPH, 4 micromolar FAD, 4 micromolar FMN, 6 micromolar BH4, 100 micromolar L-arginine, 0.0-1.0 millimolar ABHA, and 0.02 milligram per milliliter NO synthase in a final volume of 100 microliters. For experiments in which neuronal NO synthase was used, 1 millimolar CaCl2 and 100 micrograms per milliliter calmodulin were also added. Reactions were stopped by incubating the reaction mixture at 100° C. for 3 minutes. […] Absorbance at 540 nanometers was used to quantify the extent of NOx production.

arginase = target: T2, arginase (Rattus norvegicus, UniProt P07824); assay: biochemical; conditions: Kd from competition binding experiments using N-hydroxyarginine, pH 7.5 and pH 9.0
T2 sequence (P07824 1-323): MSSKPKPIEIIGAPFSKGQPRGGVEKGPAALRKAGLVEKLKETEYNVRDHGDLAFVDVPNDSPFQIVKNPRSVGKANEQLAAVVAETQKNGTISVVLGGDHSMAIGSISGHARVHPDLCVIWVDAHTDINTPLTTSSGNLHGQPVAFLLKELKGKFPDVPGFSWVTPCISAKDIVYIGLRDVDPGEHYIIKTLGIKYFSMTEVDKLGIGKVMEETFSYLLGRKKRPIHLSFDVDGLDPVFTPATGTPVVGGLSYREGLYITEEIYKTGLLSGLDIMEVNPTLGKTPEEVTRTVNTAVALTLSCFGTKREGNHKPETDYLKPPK
Source text: Additional evidence for high affinity binding of arginase and ABHA was derived from competition binding experiments using ABHA and N-hydroxyarginine, as monitored by fluorescence spectroscopy. Addition of N-hydroxyarginine to a solution of arginase results in a significant decrease in intrinsic protein fluorescence at 327 nanometers.

T1 sequence (P29475 whole entry): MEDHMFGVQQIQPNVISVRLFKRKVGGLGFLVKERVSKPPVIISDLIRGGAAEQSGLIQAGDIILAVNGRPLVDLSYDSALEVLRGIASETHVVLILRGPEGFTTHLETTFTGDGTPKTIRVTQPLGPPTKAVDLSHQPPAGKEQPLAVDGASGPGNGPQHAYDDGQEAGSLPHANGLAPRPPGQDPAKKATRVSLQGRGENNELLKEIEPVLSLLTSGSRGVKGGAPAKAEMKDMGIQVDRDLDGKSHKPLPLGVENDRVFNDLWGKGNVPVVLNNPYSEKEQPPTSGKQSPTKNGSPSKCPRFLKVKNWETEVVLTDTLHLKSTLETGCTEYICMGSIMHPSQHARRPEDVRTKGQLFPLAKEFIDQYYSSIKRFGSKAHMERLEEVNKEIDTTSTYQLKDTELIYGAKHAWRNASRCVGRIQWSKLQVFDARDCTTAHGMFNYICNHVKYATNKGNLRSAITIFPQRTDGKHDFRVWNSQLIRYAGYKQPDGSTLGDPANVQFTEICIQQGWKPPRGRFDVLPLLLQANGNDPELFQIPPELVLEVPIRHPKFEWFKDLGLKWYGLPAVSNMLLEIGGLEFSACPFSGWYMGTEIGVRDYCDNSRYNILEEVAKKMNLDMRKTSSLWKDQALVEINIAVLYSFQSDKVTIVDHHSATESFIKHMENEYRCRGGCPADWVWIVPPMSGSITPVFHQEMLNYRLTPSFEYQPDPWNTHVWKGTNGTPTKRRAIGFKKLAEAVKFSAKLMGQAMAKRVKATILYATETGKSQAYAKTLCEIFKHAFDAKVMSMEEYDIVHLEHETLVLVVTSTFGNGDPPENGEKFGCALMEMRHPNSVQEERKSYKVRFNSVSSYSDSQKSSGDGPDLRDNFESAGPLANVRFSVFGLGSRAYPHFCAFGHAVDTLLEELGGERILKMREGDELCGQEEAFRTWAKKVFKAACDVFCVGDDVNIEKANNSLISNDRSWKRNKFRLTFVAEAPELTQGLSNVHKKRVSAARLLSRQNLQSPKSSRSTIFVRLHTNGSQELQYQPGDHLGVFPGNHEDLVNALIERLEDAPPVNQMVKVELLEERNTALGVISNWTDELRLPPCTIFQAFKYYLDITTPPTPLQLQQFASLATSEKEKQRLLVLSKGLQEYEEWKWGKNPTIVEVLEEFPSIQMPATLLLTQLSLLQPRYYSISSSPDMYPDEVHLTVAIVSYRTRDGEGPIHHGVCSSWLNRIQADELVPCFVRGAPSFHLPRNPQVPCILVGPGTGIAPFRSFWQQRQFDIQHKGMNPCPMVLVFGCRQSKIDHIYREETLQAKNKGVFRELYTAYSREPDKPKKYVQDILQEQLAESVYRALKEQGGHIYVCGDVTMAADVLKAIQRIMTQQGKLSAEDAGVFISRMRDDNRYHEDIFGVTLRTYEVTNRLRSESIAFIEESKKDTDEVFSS

## N[C@@H](CCCCB(O)O)C(=O)O [compound 7, 2(S)-amino-6-boronohexanoic acid]
[1]; 0.5 Hertz EFS
  decrease in basal IAS tension after ABHA: 56.5±7.0%
[1]; 1 Hertz EFS
  decrease in basal IAS tension after ABHA: 73.6±3.5%
[1]; exogenous arginase, L-HO-Arg 1×10^−4 molar, listed as ABHA
  effect on arginase-suppressed EFS-induced IAS relaxation: reversal
[1]; lower frequencies of EFS, listed as ABHA
  augmentation of NANC nerve-mediated IAS relaxation by EFS: significant and concentration-dependent augmentation
[1]; with L-NNA, L-HO-Arg and ABHA 3×10^−4 molar
  reversal of L-NNA-suppressed IAS relaxation: did not cause any reversal; also recorded: no effect
NO synthase
  inhibition of NO synthase: does not inhibit NO synthase; also recorded: no inhibition
arginase
  pKd: ≥ 7.00
